Where two headings read alike, the source gives them in different places.
Experiments:
Type in all cases: biochemical
[1] = target: T1, β-Galactosidase (Homo sapiens, UniProt P16278); assay: inhibition of human liver β-galactosidase; settings: 1 mM inhibitor; read-out: % Inhibition of Glycosidase Activity, β-Galactosidase
T1 construct: Human liver glycosidases were assayed; from tissue; host or cells: human liver
T1 sequence (P16278 29-677): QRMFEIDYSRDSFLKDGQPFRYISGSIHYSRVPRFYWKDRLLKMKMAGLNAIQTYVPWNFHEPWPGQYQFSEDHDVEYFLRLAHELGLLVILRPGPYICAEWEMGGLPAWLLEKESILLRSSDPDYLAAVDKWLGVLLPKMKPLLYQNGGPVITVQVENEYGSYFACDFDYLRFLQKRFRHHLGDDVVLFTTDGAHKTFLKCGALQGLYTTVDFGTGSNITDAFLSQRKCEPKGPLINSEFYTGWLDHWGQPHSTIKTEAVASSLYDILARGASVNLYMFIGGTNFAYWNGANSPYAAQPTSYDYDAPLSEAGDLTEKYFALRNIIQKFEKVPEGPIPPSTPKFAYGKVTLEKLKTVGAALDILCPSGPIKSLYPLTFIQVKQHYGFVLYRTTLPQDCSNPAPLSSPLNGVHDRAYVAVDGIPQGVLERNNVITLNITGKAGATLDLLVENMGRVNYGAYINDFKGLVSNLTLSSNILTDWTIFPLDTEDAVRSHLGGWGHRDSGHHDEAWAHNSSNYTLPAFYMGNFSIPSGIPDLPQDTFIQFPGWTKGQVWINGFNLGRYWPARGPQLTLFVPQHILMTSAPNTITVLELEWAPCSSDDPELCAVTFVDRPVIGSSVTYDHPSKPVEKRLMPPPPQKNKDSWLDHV
Description: (§1) Human liver glycosidases were assayed in the absence and presence [1 mM] of each of the potential inhibitors, using the appropriate buffered 4-methylumbelliferyl glycosides as substrates, as previously described.^17 See Table I, below.

[2] = target: T2, β-Xylosidase (Homo sapiens, UniProt Q9H227); assay: inhibition of human liver β-xylosidase; settings: 1 mM inhibitor; read-out: % Inhibition of Glycosidase Activity, β-Xylosidase
T2 construct: Human liver glycosidases were assayed; from tissue; host or cells: human liver
T2 sequence (Q9H227 1-469): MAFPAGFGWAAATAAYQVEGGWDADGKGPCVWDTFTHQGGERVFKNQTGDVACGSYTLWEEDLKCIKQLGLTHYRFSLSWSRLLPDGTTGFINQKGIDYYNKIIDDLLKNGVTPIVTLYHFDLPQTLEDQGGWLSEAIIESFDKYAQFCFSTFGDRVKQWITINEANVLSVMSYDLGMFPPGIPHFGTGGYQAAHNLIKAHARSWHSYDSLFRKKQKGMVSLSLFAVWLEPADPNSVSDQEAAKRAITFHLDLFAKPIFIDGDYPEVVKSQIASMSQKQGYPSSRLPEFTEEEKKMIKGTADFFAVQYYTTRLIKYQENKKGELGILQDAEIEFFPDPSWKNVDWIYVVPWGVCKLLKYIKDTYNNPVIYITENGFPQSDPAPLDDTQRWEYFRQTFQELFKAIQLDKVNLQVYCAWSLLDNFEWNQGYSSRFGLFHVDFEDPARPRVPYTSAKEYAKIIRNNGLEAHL
Description: as §1

[3] = target: T3, β-Glucuronidase (Homo sapiens, UniProt P08236); assay: inhibition of human liver β-glucuronidase; settings: read-out: % Inhibition of Glycosidase Activity, β-Glucuronidase
T3 construct: Human liver glycosidases were assayed; from tissue; host or cells: human liver
T3 sequence (P08236 23-633 limits assumed): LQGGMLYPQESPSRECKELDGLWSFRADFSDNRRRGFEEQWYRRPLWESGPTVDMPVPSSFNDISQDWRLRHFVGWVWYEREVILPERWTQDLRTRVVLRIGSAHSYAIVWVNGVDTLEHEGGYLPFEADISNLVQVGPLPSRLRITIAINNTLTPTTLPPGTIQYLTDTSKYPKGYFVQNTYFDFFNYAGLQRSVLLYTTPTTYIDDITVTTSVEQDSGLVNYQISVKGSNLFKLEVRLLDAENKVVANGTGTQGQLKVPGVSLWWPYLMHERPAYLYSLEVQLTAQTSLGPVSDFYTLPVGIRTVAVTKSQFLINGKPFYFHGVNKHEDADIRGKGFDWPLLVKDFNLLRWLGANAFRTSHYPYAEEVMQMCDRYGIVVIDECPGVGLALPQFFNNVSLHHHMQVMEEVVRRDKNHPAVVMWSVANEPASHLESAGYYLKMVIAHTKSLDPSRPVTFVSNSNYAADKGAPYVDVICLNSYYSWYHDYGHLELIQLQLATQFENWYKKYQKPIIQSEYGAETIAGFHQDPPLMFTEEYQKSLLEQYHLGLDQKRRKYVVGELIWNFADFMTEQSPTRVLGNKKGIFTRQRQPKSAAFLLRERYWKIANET
Description: as §1

[4] = tested on: β-Hexosaminidase; assay: inhibition of human liver β-hexosaminidase; settings: for inhibition of β-hexosaminidase (in words): 1 mM; for % Inhibition of Glycosidase Activity, β-Hexosaminidase: 1 mM inhibitor
Description: as §1

[5] = target: T4, β-Mannosidase (Homo sapiens, UniProt O00462); assay: inhibition of human liver β-mannosidase; settings: read-out: % Inhibition of Glycosidase Activity, β-Mannosidase
T4 construct: Human liver glycosidases were assayed; from tissue; host or cells: human liver
T4 sequence (O00462 18-879): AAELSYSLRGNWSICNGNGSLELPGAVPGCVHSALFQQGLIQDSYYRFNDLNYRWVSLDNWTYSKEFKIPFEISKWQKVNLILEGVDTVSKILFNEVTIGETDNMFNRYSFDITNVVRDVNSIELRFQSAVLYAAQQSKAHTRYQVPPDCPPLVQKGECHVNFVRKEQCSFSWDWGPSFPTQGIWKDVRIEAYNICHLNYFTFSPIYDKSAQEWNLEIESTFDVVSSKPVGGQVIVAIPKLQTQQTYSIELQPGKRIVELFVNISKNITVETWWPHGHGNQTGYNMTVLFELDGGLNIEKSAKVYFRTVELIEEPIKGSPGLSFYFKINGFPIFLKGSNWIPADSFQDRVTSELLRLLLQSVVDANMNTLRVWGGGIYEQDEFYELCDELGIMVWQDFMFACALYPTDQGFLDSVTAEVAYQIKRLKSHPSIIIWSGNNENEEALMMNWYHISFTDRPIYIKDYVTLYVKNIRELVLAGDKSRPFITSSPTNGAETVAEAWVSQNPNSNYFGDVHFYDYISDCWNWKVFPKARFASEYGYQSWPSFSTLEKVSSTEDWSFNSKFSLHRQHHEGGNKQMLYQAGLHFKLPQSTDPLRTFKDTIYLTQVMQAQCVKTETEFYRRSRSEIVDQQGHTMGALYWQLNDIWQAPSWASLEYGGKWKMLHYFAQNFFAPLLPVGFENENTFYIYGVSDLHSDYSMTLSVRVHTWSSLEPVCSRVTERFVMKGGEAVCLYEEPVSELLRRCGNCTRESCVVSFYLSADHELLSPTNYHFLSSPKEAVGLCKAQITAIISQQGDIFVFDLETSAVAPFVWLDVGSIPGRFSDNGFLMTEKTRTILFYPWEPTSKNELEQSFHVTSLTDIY
Description: as §1

[6] = tested on: α-mannosidases; assay: inhibition of human liver α-mannosidases (multiple forms taken together); settings: for inhibition of α-mannosidases (in words): 1 mM
Description: as §1

[7] = tested on: α-Arabinosidase; assay: inhibition of human liver α-arabinosidase; settings: 1 mM inhibitor
Description: as §1

SMILES	inhibition at 1000 µM [1]	inhibition at 1000 µM [2]	inhibition at 1000 µM ([3]; 1 mM inhibitor)	inhibition of β-hexosaminidase (in words) [4]	% Inhibition of Glycosidase Activity, β-Hexosaminidase [4]	inhibition at 1000 µM ([5]; 1 mM inhibitor)	inhibition of α-mannosidases (in words) [6]	inhibition of α-mannosidases (in words) ([6]; listed as α-(aminomethyl)-1-deoxy-mannofuranose (5))	% Inhibition of Glycosidase Activity, α-Arabinosidase [7]	inhibition at 1000 µM [3]	inhibition at 1000 µM [5]	inhibitory activity against α-mannosidase relative to DMJ ([6]; compared with DMJ (1))	selectivity for α-mannosidases (in words) ([6]; compared with parent compound DMJ (1))
NC[C@H]1O[C@H]([C@H](O)CO)[C@H](O)[C@@H]1O [Manhepamine (5), 1-amino-2,5-anhydro-1-deoxy-D-glycero-D-talo-heptitol]	0%	6%	7%	weak inhibitory properties towards β-N-acetylhexosaminidase	46%	3%	did not inhibit any of the α-mannosidases	relatively inactive against α-mannosidases	0%	–	–	–	–
OC[C@H]1NC[C@@H](O)[C@@H](O)[C@@H]1O [DMJ (1), deoxymannojirimycin]	–	3%	–	moderate inhibition of β-hexosaminidase	55%	–	–	–	5%	53%	0%	–	–
OC[C@@H](O)[C@H]1NC[C@@H](O)[C@H]1O [DIM (3)]	76%	45%	9%	–	28%	0%	much more potent inhibitor than the piperidine analogues (1) and (2) of all the mannosidases investigated	–	66%	–	–	–	–
OC[C@@H](O)[C@H]1N[C@H](CO)[C@@H](O)[C@H]1O [αHomoDIM (4), 2,5-dideoxy-2,5-imino-D-glycero-D-talo-heptitol]	35%	21%	0%	–	0%	18%	still retaining significant inhibitory properties towards α-mannosidases	–	25%	–	–	about twice as effective as DMJ	–
OC[C@H]1N[C@H](CO)[C@@H](O)C(O)[C@@H]1O (stereo partly drawn) [αHomoDMJ (2)]	0%	0%	0%	abolish the moderate inhibition of β-hexosaminidase	1%	0%	does not affect appreciably the inhibition of the multiple forms of α-mannosidase	–	0%	–	–	–	much more selective inhibitor of α-mannosidases than is the parent compound DMJ (1)

From patent US5384417A, “Heptitols” (priority 1994, dated 1995)
